In patent US8076338B2, “Kinase modulators and methods of use” (Exelixis, Inc., priority 2004, dated 2011):
Where two headings read alike, the source gives them in different places.

What was measured:
AktK = AktK (Homo sapiens, UniProt P31749); experiment: Luciferase-coupled chemiluminescence kinase assay (ATP consumption); assay type: biochemical; conditions: read-out: AKT-1 IC50
In short: (§1)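 Activity is read as ATP depletion: luciferase-luciferin reagent added after a 3 h ambient-temperature kinase reaction, with total ATP use limited to 25-60%. Before ATP addition, 2.5-5 nM kinase and compound were preincubated 30 min in Tris pH 7.5/MgCl2/TX-100/DTT buffer; […].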

p70S6K = p70S6K (Homo sapiens, UniProt P23443); experiment: as above; assay type: biochemical
p70S6K, sequence (P23443 whole entry): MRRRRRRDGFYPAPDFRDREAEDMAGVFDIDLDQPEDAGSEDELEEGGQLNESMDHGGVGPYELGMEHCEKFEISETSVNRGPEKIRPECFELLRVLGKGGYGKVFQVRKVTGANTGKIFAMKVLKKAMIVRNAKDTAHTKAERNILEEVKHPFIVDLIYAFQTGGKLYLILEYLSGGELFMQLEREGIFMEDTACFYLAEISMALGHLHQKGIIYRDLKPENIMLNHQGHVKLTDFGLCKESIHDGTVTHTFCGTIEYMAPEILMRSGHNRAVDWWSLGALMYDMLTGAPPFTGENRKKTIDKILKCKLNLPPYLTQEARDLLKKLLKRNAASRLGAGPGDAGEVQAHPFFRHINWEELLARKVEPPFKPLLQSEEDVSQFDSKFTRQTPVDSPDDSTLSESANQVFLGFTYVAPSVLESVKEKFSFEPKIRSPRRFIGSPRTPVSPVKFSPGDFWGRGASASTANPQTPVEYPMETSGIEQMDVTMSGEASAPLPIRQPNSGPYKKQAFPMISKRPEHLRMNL
In short: as §1

AktK, sequence (P31749 whole entry): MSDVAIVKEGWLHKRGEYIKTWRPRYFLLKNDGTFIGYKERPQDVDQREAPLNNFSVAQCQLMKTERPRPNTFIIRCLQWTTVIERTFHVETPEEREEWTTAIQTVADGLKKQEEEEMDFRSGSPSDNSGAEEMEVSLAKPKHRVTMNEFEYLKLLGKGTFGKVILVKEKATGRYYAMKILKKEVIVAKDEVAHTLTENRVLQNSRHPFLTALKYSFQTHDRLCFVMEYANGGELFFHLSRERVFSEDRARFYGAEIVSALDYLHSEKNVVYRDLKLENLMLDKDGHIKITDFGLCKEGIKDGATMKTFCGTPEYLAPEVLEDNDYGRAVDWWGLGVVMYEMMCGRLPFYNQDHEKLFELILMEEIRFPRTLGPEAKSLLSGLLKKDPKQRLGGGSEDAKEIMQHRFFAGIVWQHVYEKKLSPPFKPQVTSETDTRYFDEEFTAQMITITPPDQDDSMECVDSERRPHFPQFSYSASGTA

With `Cc1c(OCCN2CCCC2)cc(Cl)cc1N1CCN(c2ncnc3[nH]nc(C4CC4)c23)CC1` [Entry 160, 4-(4-{5-chloro-2-methyl-3-[(2-pyrrolidin-1-ylethyl)oxy]phenyl}piperazin-1-yl)-3-cyclopropyl-1H-pyrazolo[3,4-d]pyrimidine] as the compound, how does the IC50 (AktK; Table 1, class symbols per key) read?
The IC50 was 1000 to 10000 nM.

And the IC50 (p70S6K; Table 1, class symbols per key)?
Its IC50 is < 100 nM.

What does the source list for `FC(F)(F)c1cccc(N2CCN(c3ncnc4[nH]nc(Br)c34)CC2)c1` [Entry 155, 3-bromo-4-{4-[3-(trifluoromethyl)phenyl]piperazin-1-yl}-1H-pyrazolo[3,4-d]pyrimidine]?
IC50 (AktK; Table 1, class symbols per key): ≥ 10000 nM; IC50 (p70S6K; Table 1, class symbols per key): < 100 nM

Which IC50 (AktK; Table 1, class symbols per key) does the source give for `Cc1nc(-c2cc(NCCN3CCCC3)c(C)c(N3CCN(c4ncnc5[nH]nc(Br)c45)CC3)c2)no1` [Entry 259, 3-[4-(3-bromo-1H-pyrazolo[3,4-d]pyrimidin-4-yl)piperazin-1-yl]-2-methyl-5-(5-methyl-1,2,4-oxadiazol-3-yl)-N-(2-pyrrolidin-1-ylethyl)aniline] here?
The IC50 was < 100 nM.

And the IC50 (p70S6K; Table 1, class symbols per key)?
The IC50 was < 100 nM.

What does the source list for `CCc1n[nH]c2ncnc(N3CCN(c4cc(Cl)cc(C(=O)OCCN(C)C)c4OC)CC3)c12` [Entry 376, 2-(dimethylamino)ethyl 5-chloro-3-[4-(3-ethyl-1H-pyrazolo[3,4-d]pyrimidin-4-yl)piperazin-1-yl]-2-(methyloxy)benzoate]?
IC50 (AktK): 1000 to 10000 nM; IC50 (p70S6K): < 100 nM

Which results are given for `CCN(CC)CCCOc1cc(Cl)cc(N2CCN(c3ncnc4[nH]nc(C(F)(F)F)c34)CC2)c1C` [Entry 56, 3-[(5-chloro-2-methyl-3-{4-[3-(trifluoromethyl)-1H-pyrazolo[3,4-d]pyrimidin-4-yl]piperazin-1-yl}phenyl)oxy]-N,N-diethylpropan-1-amine]?
IC50 (AktK; Table 1, class symbols per key): 100 to 1000 nM; IC50 (p70S6K; Table 1, class symbols per key): < 100 nM

With `Cc1ccc(Cl)cc1N1CCN(c2ncnc3[nH]nc(-c4ccc(O)cc4)c23)CC1` [Entry 331, 4-{4-[4-(5-chloro-2-methylphenyl)piperazin-1-yl]-1H-pyrazolo[3,4-d]pyrimidin-3-yl}phenol] as the compound, how does the IC50 (AktK) read?
The IC50 was 1000 to 10000 nM.

And the IC50 (p70S6K)?
The IC50 was < 100 nM.

For `COc1ccccc1N1CCN(c2ncnc3[nH]cnc23)CC1` [Entry 307, 6-{4-[2-(methyloxy)phenyl]piperazin-1-yl}-9H-purine], which IC50 (AktK) is on record?
The IC50 was ≥ 10000 nM.

And the IC50 (p70S6K)?
Its IC50 is 100 to 1000 nM.

Which IC50 (AktK; Table 1, class symbols per key) does the source give for `Cc1ccc(N2CCN(c3ncnc4[nH]nc(Br)c34)CC2)cc1NCCN1CCCC1` [Entry 57, 5-[4-(3-bromo-1H-pyrazolo[3,4-d]pyrimidin-4-yl)piperazin-1-yl]-2-methyl-N-(2-pyrrolidin-1-ylethyl)aniline] here?
Its IC50 is 1000 to 10000 nM.

And the IC50 (p70S6K; Table 1, class symbols per key)?
The IC50 was 100 to 1000 nM.

Which results are given for `CCCC(O)c1cc(NCCN2CCCC2)c(C)c(N2CCN(c3ncnc4[nH]nc(Br)c34)CC2)c1` (centres unmarked) [Entry 286, 1-{3-[4-(3-bromo-1H-pyrazolo[3,4-d]pyrimidin-4-yl)piperazin-1-yl]-4-methyl-5-[(2-pyrrolidin-1-ylethyl)amino]phenyl}butan-1-ol]?
IC50 (AktK; Table 1, class symbols per key): < 100 nM; IC50 (p70S6K; Table 1, class symbols per key): < 100 nM

Which IC50 (AktK) does the source give for `CC(=O)Nc1ccc(-c2n[nH]c3ncnc(N4CCN(c5cc(Cl)ccc5C)CC4)c23)cc1` [Entry 342, N-(4-{4-[4-(5-chloro-2-methylphenyl)piperazin-1-yl]-1H-pyrazolo[3,4-d]pyrimidin-3-yl}phenyl)acetamide] here?
Its IC50 is 1000 to 10000 nM.

What about the IC50 (p70S6K) of the same compound?
The IC50 was 100 to 1000 nM.

With `Cc1ccccc1N1CCN(c2ncnc3[nH]ccc23)CC1` [Entry 301, 4-[4-(2-methylphenyl)piperazin-1-yl]-7H-pyrrolo[2,3-d]pyrimidine] as the compound, how does the IC50 (AktK) read?
The IC50 was ≥ 10000 nM.

And the IC50 (p70S6K)?
Its IC50 is 100 to 1000 nM.

With `Cc1c(OCCN2CCCC2)cc(Cl)cc1N1CCN(c2ncnc3[nH]nc(CC(C)C)c23)CC1` [Entry 163, 4-(4-{5-chloro-2-methyl-3-[(2-pyrrolidin-1-ylethyl)oxy]phenyl}piperazin-1-yl)-3-(2-methylpropyl)-1H-pyrazolo[3,4-d]pyrimidine] as the compound, how does the IC50 (AktK; Table 1, class symbols per key) read?
Its IC50 is 1000 to 10000 nM.

What about the IC50 (p70S6K; Table 1, class symbols per key) of the same compound?
The IC50 was < 100 nM.

For `Cc1c(NCCN(C)C)cc(Cl)cc1N1CCN(c2ncnc3[nH]nc(Br)c23)CC1` [Entry 148, N′-{3-[4-(3-bromo-1H-pyrazolo[3,4-d]pyrimidin-4-yl)piperazin-1-yl]-5-chloro-2-methylphenyl}-N,N-dimethylethane-1,2-diamine], which IC50 (AktK; Table 1, class symbols per key) is on record?
Its IC50 is < 100 nM.

And the IC50 (p70S6K; Table 1, class symbols per key)?
The IC50 was < 100 nM.

With `Cc1c(OCC2CCN(C)CC2)cc(Cl)cc1N1CCN(c2ncnc3[nH]nc(Br)c23)CC1` [Entry 88, 3-bromo-4-[4-(5-chloro-2-methyl-3-{[(1-methyl-piperidin-4-yl)methyl]oxy}phenyl)piperazin-1-yl]-1H-pyrazolo[3,4-d]pyrimidine] as the compound, how does the IC50 (AktK; Table 1, class symbols per key) read?
The IC50 was < 100 nM.

And the IC50 (p70S6K; Table 1, class symbols per key)?
Its IC50 is < 100 nM.

For `Cc1c(CCC[n+]2ccccc2)cc(-c2ccccc2)cc1N1CCN(c2ncnc3[nH]nc(Br)c23)CC1` [Entry 232, 1-(3-{5-[4-(3-bromo-1H-pyrazolo[3,4-d]pyrimidin-4-yl)piperazin-1-yl]-4-methylbiphenyl-3-yl}propyl)pyridinium], which IC50 (AktK; Table 1, class symbols per key) is on record?
The IC50 was < 100 nM.

And the IC50 (p70S6K; Table 1, class symbols per key)?
Its IC50 is < 100 nM.

`O=[N+]([O-])c1ccc(N2CCN(c3ncnc4[nH]nc(Br)c34)CC2)cc1` [Entry 97, 3-bromo-4-[4-(4-nitrophenyl)piperazin-1-yl]-1H-pyrazolo[3,4-d]pyrimidine] was tested. Which IC50 (AktK; Table 1, class symbols per key) did it give?
Its IC50 is ≥ 10000 nM.

And the IC50 (p70S6K; Table 1, class symbols per key)?
The IC50 was 100 to 1000 nM.

`Clc1ccc(N2CCN(c3ncnc4[nH]nc(Br)c34)CC2)c(Cl)c1` [Entry 77, 3-bromo-4-[4-(2,4-dichlorophenyl)piperazin-1-yl]-1H-pyrazolo[3,4-d]pyrimidine] was tested. Which IC50 (AktK; Table 1, class symbols per key) did it give?
The IC50 was ≥ 10000 nM.

And the IC50 (p70S6K; Table 1, class symbols per key)?
The IC50 was 100 to 1000 nM.

How did the IC50 (AktK) turn out when `CCc1n[nH]c2ncnc(N3CCN(c4cc(Cl)ccc4C)CC3)c12` [Entry 323, 4-[4-(5-chloro-2-methylphenyl)piperazin-1-yl]-3-ethyl-1H-pyrazolo[3,4-d]pyrimidine] was run?
The IC50 was 1000 to 10000 nM.

And the IC50 (p70S6K)?
Its IC50 is < 100 nM.

`Cc1c(NCCN2CCCC2)cc(OCC2CCC2)cc1N1CCN(c2ncnc3[nH]nc(Br)c23)CC1` [Entry 211, 3-[4-(3-bromo-1H-pyrazolo[3,4-d]pyrimidin-4-yl)piperazin-1-yl]-5-[(cyclobutylmethyl)oxy]-2-methyl-N-(2-pyrrolidin-1-ylethyl)aniline] was tested. Which IC50 (AktK; Table 1, class symbols per key) did it give?
The IC50 was < 100 nM.

And the IC50 (p70S6K; Table 1, class symbols per key)?
Its IC50 is < 100 nM.

For `CCN1CCN(CCCOc2cc(Cl)cc(N3CCN(c4ncnc5[nH]nc(C(F)(F)F)c45)CC3)c2C)CC1` [Entry 71, 4-[4-(5-chloro-3-{[3-(4-ethylpiperazin-1-yl)propyl]oxy}-2-methylphenyl)piperazin-1-yl]-3-(trifluoromethyl)-1H-pyrazolo[3,4-d]pyrimidine], which IC50 (AktK; Table 1, class symbols per key) is on record?
Its IC50 is 100 to 1000 nM.

What about the IC50 (p70S6K; Table 1, class symbols per key) of the same compound?
Its IC50 is < 100 nM.

`COc1ccc(N2CCN(c3ncnc4[nH]cnc34)CC2)cc1` [Entry 306, 6-{4-[4-(methyloxy)phenyl]piperazin-1-yl}-9H-purine] was tested. Which IC50 (AktK) did it give?
Its IC50 is ≥ 10000 nM.

What about the IC50 (p70S6K) of the same compound?
The IC50 was 1000 to 10000 nM.

Which IC50 (AktK; Table 1, class symbols per key) does the source give for `Cc1c(OCCCN2CCN(C)CC2)cc(Cl)cc1N1CCN(c2ncnc3[nH]nc(C(F)(F)F)c23)CC1` [Entry 70, 4-[4-(5-chloro-2-methyl-3-{[3-(4-methylpiperazin-1-yl)propyl]oxy}phenyl)piperazin-1-yl]-3-(trifluoromethyl)-1H-pyrazolo[3,4-d]pyrimidine] here?
Its IC50 is 100 to 1000 nM.

What about the IC50 (p70S6K; Table 1, class symbols per key) of the same compound?
The IC50 was < 100 nM.

With `COC(=O)c1ccc(C)c(N2CCN(c3ncnc4[nH]nc(Br)c34)CC2)c1` [Entry 179, methyl 3-[4-(3-bromo-1H-pyrazolo[3,4-d]py-rimidin-4-yl)piperazin-1-yl]-4-methylbenzoate] as the compound, how does the IC50 (AktK; Table 1, class symbols per key) read?
Its IC50 is < 100 nM.

What about the IC50 (p70S6K; Table 1, class symbols per key) of the same compound?
Its IC50 is < 100 nM.

How did the IC50 (AktK; Table 1, class symbols per key) turn out when `Cc1c(NCCN2CCCC2)cc(C(=O)Nc2ccc(Cl)cc2)cc1N1CCN(c2ncnc3[nH]nc(Br)c23)CC1` [Entry 203, 3-[4-(3-bromo-1H-pyrazolo[3,4-d]pyrimidin-4-yl)piperazin-1-yl]-N-(4-chlorophenyl)-4-methyl-5-[(2-pyrrolidin-1-ylethyl)amino]benzamide] was run?
The IC50 was < 100 nM.

And the IC50 (p70S6K; Table 1, class symbols per key)?
The IC50 was < 100 nM.

Which results are given for `Cc1c(NCCN2CCCC2)cc(C(=O)O)cc1N1CCN(c2ncnc3[nH]nc(Br)c23)CC1` [Entry 234, 3-[4-(3-bromo-1H-pyrazolo[3,4-d]pyrimidin-4-yl)piperazin-1-yl]-4-methyl-5-[(2-pyrrolidin-1-ylethyl)amino]benzoic acid]?
IC50 (AktK; Table 1, class symbols per key): 1000 to 10000 nM; IC50 (p70S6K; Table 1, class symbols per key): < 100 nM

How did the IC50 (AktK; Table 1, class symbols per key) turn out when `Cc1c(OCCCN2CCCC2)cc(Cl)cc1N1CCN(c2ncnc3[nH]nc(C(F)(F)F)c23)CC1` [Entry 68, 4-(4-{5-chloro-2-methyl-3-[(3-pyrrolidin-1-ylpropyl)oxy]phenyl}piperazin-1-yl)-3-(trifluoromethyl)-1H-pyrazolo[3,4-d]pyrimidine] was run?
Its IC50 is 100 to 1000 nM.

What about the IC50 (p70S6K; Table 1, class symbols per key) of the same compound?
The IC50 was < 100 nM.

For `Cc1ccc(Cl)cc1N1CCN(c2ncnc3[nH]nc(-c4cccc(N)c4)c23)CC1` [Entry 339, 3-{4-[4-(5-chloro-2-methylphenyl)piperazin-1-yl]-1H-pyrazolo[3,4-d]pyrimidin-3-yl}aniline], which IC50 (AktK) is on record?
The IC50 was 1000 to 10000 nM.

What about the IC50 (p70S6K) of the same compound?
Its IC50 is 100 to 1000 nM.

`Cc1ccc(Cl)cc1N1CCN(c2ncnc3[nH]nc(-c4cccs4)c23)CC1` [Entry 338, 4-[4-(5-chloro-2-methylphenyl)piperazin-1-yl]-3-(2-thienyl)-1H-pyrazolo[3,4-d]pyrimidine] was tested. Which IC50 (AktK) did it give?
The IC50 was 1000 to 10000 nM.

And the IC50 (p70S6K)?
Its IC50 is < 100 nM.

How did the IC50 (AktK; Table 1, class symbols per key) turn out when `Cc1c(CCCN2CCCCC2)cc(Cl)cc1N1CCN(c2ncnc3[nH]nc(C(F)(F)F)c23)CC1` [Entry 100, 4-{4-[5-chloro-2-methyl-3-(3-piperidin-1-ylpropyl)phenyl]piperazin-1-yl}-3-(trifluoromethyl)-1H-pyrazolo[3,4-d]pyrimidine] was run?
The IC50 was 100 to 1000 nM.

What about the IC50 (p70S6K; Table 1, class symbols per key) of the same compound?
The IC50 was < 100 nM.

How did the IC50 (AktK; Table 1, class symbols per key) turn out when `CCc1n[nH]c2ncnc(N3CCN(c4cc(F)cc(NCCN5CCCC5)c4Cl)CC3)c12` [Entry 130, 2-chloro-3-[4-(3-ethyl-1H-pyrazolo[3,4-d]pyrimidin-4-yl)piperazin-1-yl]-5-fluoro-N-(2-pyrrolidin-1-ylethyl)aniline] was run?
Its IC50 is 1000 to 10000 nM.

And the IC50 (p70S6K; Table 1, class symbols per key)?
The IC50 was < 100 nM.

For `CCc1n[nH]c2ncnc(N3CCN(c4cccc(OCCN(CC)CC)c4C)CC3)c12` [Entry 32, N,N-diethyl-2-({3-[4-(3-ethyl-1H-pyrazolo[3,4-d]pyrimidin-4-yl)piperazin-1-yl]-2-methylphenyl}oxy)ethanamine], which IC50 (AktK; Table 1, class symbols per key) is on record?
The IC50 was 1000 to 10000 nM.

And the IC50 (p70S6K; Table 1, class symbols per key)?
Its IC50 is 100 to 1000 nM.
